This test has as its system γδ T cells. The test can be described thus: γδ T cell expansion in defined medium. The format is cell-based, human. The settings on record: defined medium with IL-2, IL-15, Amphotericin B.

SMILES strings stand for the structures.

For the molecule `O=P(O)(O)C(O)(Cn1ccnc1)P(=O)(O)O` [Zoledronate, Zoledronic acid], the “fold increase in absolute number of γδ T cells” value is listed as 3,350 fold (Donor 20, Day 0 to Day 17); 11,060 fold (Donor 20, Day 0 to Day 22); 31,666 fold (Donor 20, Day 0 to Day 29); 4,633 fold (Donor 21, Day 0 to Day 17); 12,320 fold (Donor 21, Day 0 to Day 22); 32,833 fold (Donor 21, Day 0 to Day 29).

These data come from patent US12440541B2, “Methods for expanding and activating γσ T cells for the treatment of cancer and related malignancies” (priority 2017, dated 2025).
